Experimental data taken from EP4329743B1 (priority 2021, dated 2022).

Key:
[1] = tested on: Neuraminidase (EC 3.2.1.18); test: Neuraminidase activity assay (colorimetric kit, Sigma Aldrich MAK121); format: biochemical; settings: maximum activity set 100%; mean of three independent experiments; Figure 4
Experimental: Neuraminidase (EC 3.2.1.18) also known as sialidase is an enzyme that hydrolyzes terminal sialic acid residues on polysaccharide chains. It is predominantly expressed on the surface of viruses and bacteria. For activity measurement, the activity was measured using the neuraminidase activity kit from Sigma Aldrich (Cat.No.: MAK121). Accordingly, the neuraminidase activity is determined by an enzymatic essay in which the sialic acid released by neuraminidase results in the colorimetric product directly proportional to neuraminidase activity in the sample. The reaction master mixture contained assay buffer, (+/-) substrate, cofactors, neuraminidase, and dye-reagent. The activity is expressed as units/L and maximum activity was arbitrarily set 100%. The effect of ethyl pyruvate and ethyl lactate on enzyme activity was evaluated by comparing the change of the absorbance against the samples with substrate (maximum activity) and without the substrate (blank).

influenza virus H9N2 = format: cell-based; settings: MDCK II cells, H9N2, 1 h infection, 2 days culture; ethyl pyruvate 42 mM; Figure 5
[2] = tested on: inflammatory cytokines such as TNF-alpha, IL-1β, IL-6 and IL-8; test: Release of inflammatory cytokines from LPS-stimulated human whole blood (cytometric bead array); format: cell-based; settings: whole blood diluted 1:5, LPS 10ng/ml, 1 to 20 mM, 6 h; Figure 6
Experimental: Human heparinized whole blood was diluted with RPMI 1640 medium (ThermoFisher Scientific) (1:5) and incubated with LPS (10ng/ml) and increasing concentration of ethyl pyruvate (A-D) or ethyl lactate (E-H) (1 to 20 mM) for 6 h at 37°C with 5% CO2. Following incubation, the plates were centrifuged at 2000g for 10 min and the proinflammatory cytokines were analysed by cytometric bead array using a FACSCalibur and the CellQuestTMSoftware (BD Biosciences).

Row | Compound | activity of neuraminidase [1] | cytopathic effect of the influenza virus (cellular structures and confluency) (influenza virus H9N2) | release of inflammatory cytokines (TNF-alpha, IL-1β, IL-6, IL-8) [2] | toxic effect on MDCK II cells (MDCK II cells)
1 | CCOC(=O)C(C)O (centres unmarked) [ethyl lactate] | only minimum inhibitory effect | does not protect MDCK II cells from the cytopathic effect of the virus | effectively inhibited | no toxic effect
2 | CCOC(=O)C(C)=O [ethyl pyruvate, Ethyl pyruvate] | inhibits activity of neuraminidase in a concentration-dependent manner | the cellular structures and confluency is preserved | effectively inhibited | no toxic effect
